Literature values in US20050164987A1, “Melatonin combination therapy for improving sleep quality” (priority 2003, published 2005).
Read-outs that look alike come from different tables or passages of the source.

Columns and labels:
[1] = tested on: other melatonin receptors
MT-3 melatonin sites = conditions: hamster brain
levels of melatonin = conditions: rats
human MT1 receptors = human MT1 receptors (Homo sapiens, UniProt P48039)
[2] = in vivo
physiological rhythms = conditions: 5 mg dose; simulated 9 h time lag
[3] = tested on: mammalian melatonin receptors
rats [4] = tested on: rats
ML2 receptors = ML2 receptors (Homo sapiens, UniProt P16083)
rats [5] = tested on: rats; remark: listed apart in the source
[6] = not given; remark: listed apart in the source
[7] = biological target: T1, brain omega-1 receptor located on alpha subunit of the GABAA/chloride ion channel receptor complex (Homo sapiens, UniProt P14867+P18507)
T1 construct: host or cells: brain

[8] = tested on: patients with major depressive disorder; conditions: 1, 5 and 25 mg once a day vs placebo, 8 weeks, over 700 patients
mice = conditions: reference agents; scores below 40 denote behavioral depression
GABA uptake system = conditions: concentrations of 5×10^-4 M
[9] = biological target: GABA:2-oxo-glutarate aminotransferase (Homo sapiens, UniProt P80404); conditions: concentrations of 10^−3 M
[10] = tested on: lumbar dorsal horn interneurones and Renshaw cells; conditions: in vivo
sleep = conditions: post-nap
[11] = tested on: healthy, elderly patients; conditions: oral administration
[12] = tested on: L-glutamate 1-carboxylase; conditions: concentrations of 10^−3 M
[13] = tested on: calcium-dependent release of dopamine from rabbit retina; conditions: picomolar concentrations
[14] = tested on: calcium-dependent release of dopamine from chicken retina; conditions: picomolar concentrations
[15] = not given; remark: listed apart in the source
[16] = from the stomach
[17] = 10 mg or 64 mg dosages, compared to placebo

Sequence of ML2 receptors (P16083 whole entry): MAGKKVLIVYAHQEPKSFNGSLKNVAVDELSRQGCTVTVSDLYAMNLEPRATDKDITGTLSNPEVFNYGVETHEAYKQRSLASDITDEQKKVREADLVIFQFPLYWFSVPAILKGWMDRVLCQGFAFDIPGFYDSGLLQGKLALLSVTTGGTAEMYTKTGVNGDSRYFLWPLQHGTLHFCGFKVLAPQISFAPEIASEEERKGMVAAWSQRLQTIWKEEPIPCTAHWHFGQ
Sequence of GABA:2-oxo-glutarate aminotransferase (P80404 29-500): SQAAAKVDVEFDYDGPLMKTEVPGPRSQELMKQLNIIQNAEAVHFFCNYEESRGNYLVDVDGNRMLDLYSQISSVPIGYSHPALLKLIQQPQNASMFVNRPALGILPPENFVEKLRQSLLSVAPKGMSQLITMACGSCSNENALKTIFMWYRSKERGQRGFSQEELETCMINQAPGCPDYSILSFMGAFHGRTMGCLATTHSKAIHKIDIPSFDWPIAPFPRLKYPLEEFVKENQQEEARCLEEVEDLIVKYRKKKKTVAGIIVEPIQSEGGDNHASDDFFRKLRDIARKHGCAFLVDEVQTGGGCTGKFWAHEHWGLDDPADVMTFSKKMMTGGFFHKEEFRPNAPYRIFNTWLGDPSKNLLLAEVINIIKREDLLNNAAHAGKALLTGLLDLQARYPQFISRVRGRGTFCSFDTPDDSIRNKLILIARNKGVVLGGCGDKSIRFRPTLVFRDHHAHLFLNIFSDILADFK
Sequence of human MT1 receptors (P48039 whole entry): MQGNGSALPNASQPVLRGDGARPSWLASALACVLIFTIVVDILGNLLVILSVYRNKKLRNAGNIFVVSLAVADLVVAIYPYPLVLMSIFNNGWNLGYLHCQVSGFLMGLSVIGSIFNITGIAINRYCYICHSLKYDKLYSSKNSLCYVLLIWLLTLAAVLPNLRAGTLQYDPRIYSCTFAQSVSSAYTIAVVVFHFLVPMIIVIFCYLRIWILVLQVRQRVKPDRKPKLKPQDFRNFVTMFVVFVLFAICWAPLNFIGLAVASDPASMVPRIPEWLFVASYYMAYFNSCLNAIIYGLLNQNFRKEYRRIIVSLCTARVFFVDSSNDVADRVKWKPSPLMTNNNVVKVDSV
T1 sequence (P14867 28-456): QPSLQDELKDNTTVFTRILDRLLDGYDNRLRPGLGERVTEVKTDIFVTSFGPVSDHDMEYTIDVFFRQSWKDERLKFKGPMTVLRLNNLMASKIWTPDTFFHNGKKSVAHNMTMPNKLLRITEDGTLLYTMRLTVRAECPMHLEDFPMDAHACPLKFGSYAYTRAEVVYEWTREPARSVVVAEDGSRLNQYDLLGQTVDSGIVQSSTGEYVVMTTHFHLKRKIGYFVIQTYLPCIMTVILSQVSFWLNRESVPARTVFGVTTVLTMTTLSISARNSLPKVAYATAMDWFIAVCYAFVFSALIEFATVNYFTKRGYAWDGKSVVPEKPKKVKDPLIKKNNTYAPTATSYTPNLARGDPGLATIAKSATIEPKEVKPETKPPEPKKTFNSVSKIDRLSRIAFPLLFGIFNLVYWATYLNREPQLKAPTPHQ
T1 sequence (P18507 40-475): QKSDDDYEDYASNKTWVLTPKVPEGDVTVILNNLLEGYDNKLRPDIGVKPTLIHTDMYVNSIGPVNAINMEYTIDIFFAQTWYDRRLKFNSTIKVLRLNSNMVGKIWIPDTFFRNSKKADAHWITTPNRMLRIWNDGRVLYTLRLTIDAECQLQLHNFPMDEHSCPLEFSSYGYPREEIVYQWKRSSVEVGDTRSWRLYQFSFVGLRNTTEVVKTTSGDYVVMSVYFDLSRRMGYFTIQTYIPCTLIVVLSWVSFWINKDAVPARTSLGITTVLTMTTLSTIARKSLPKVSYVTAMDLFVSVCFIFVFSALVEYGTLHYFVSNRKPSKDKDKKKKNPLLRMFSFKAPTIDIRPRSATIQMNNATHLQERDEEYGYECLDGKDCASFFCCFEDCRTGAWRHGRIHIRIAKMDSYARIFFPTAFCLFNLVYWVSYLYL
T1 sequence (P47870 25-512 partner limits assumed): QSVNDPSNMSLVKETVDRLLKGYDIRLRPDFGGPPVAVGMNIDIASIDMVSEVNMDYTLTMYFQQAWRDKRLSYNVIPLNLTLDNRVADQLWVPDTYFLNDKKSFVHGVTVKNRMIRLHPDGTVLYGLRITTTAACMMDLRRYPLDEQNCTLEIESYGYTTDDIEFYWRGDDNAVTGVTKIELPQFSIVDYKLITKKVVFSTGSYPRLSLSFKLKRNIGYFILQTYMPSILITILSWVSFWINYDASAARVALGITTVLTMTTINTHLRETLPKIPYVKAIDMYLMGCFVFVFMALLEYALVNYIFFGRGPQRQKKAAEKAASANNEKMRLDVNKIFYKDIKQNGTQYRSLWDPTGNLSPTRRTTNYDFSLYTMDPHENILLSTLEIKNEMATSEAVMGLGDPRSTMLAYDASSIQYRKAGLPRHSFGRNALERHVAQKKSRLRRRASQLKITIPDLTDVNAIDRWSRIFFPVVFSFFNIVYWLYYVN

## COC(=O)Nc1ccc2[nH]cc(CCNC(C)=O)c2c1 [5-MCA-NAT, 5-methoxy-carbonylamino-N-acetyltryptamine]
[1]
  affinity or efficacy for other melatonin receptors: low affinity or efficacy
MT-3 melatonin sites
  affinity for MT-3 melatonin sites: high affinity

## COc1cccc2c1CC(NC(C)=O)CC2 (centres unmarked) [AH-001, 2-acetamido-8-methoxytetralin]
Levels of melatonin
  levels of melatonin: increase

## CCC(=O)NCC1Cc2cccc(OC)c2C1 (centres unmarked) [GG-012, 4-methoxy-2-(methylenepropylamide)indan]
Levels of melatonin
  levels of melatonin: two-fold increase

## CC(=O)NCCN1CCc2ccc3c(c21)CCO3 [GR196429, N-[2-[2,3,7,8-tetrahydro-1H-furo(2,3-g)indol-1-yl]ethyl]acetamide]
Human MT1 receptors
  pKi: 9.9

## CC(=O)N(C)c1cccc(-c2ccnc3c(C(=O)c4cccs4)cnn23)c1 [Indiplon, N-methyl-N-(3-{3-[2-thienylcarbonyl]-pyrazolo-[1,5-a]-pyrimidin-7-yl}-phenyl)acetamide]
[2]
  half-life: approximately 1.3 hours

## COc1cc2c([C@@H](C)CNC(C)=O)c[nH]c2cc1Cl [LY 156735]
Physiological rhythms
  readaptation speed of physiological rhythms: enhanced the readaptation speed

## CC(=O)NCCc1c(Cc2ccccc2)[nH]c2ccccc12 [Luzindole, 2-benzyl-N-acetyltryptamine]
[3]; concentrations up to 10 μM
  calcium-dependent release of [3H]dopamine: does not modify
  spontaneous outflow of [3H]dopamine: does not modify
[3]; in a competitive fashion
  ability of melatonin to inhibit [3H]dopamine release: antagonize

## COc1ccc2[nH]cc(CCNc3ccc([N+](=O)[O-])cc3[N+](=O)[O-])c2c1 [ML-23, N-2,4-dinitrophenyl-5-methoxy-tryptamine]
Rats [4]
  development of severe motor impairment: prevented

## CP(=O)(O)CCCN [SKF 97541, 3-aminopropyl(methyl)phosphinic acid]
other
  solubility in water and dilute aqueous base: readily soluble

## CCC(=O)NCC[C@@H]1CCc2ccc3c(c21)CCO3 [TAK-375]
ML2 receptors
  selectivity with respect to ML2 receptors: excellent selectivity
Human subjects; [17]
  falling asleep: fall asleep more quickly
  remaining asleep: remain asleep for a longer period of time
Human subjects; human subjects
  side effects: limited to only a few cases of headache, somnolence, fatigue, nausea, and dissiness
Dopamine receptors
  binding affinity for dopamine receptors: virtually no binding affinity
Opiate receptors
  binding affinity for opiate receptors: virtually no binding affinity
ML1 receptors
  affinity for ML1 receptors: very high affinity
Rats [5]; compared with melatonin
  duration of sleep-promoting effects: last longer than those of melatonin
Rats [5]; rat, in vivo
  learning or memory: did not impair
Rats [5]; rats
  potential for drug dependence: did not demonstrate the potential for drug dependence
Benzodiazepine receptors
  binding affinity for benzodiazepine receptors: virtually no binding affinity

## CCN(C(C)=O)c1cccc(-c2ccnc3c(C#N)cnn23)c1 [Zaleplon, N-[3-(3-cyanopyrazolo[1,5-a]pyrimidin-7-yl)phenyl]-N-ethylacetamide]
[6]; following oral administration
  time of peak plasma concentrations: 1 h
[6]; oral, substantial presystemic metabolism
  bioavailability: 30%
[7]
  binding to brain omega-1 receptor: binds selectively

## COc1ccc2cccc(CCNC(C)=O)c2c1 [agomelatine]
[8]
  optimal dosage: 25 mg

## CN1C(=O)CN=C(c2ccccc2)c2cc(Cl)ccc21 [diazepam, 7-chloro-1,3-dihydro-1-methyl-5-phenyl-2H-1,4-benzodiazepin-2-one]
mice
  ED100: 50 mg/kg

## Oc1noc2c1CCNC2 [gaboxadol, 4,5,6,7-tetrahydroisoxazolo[5,4-c]pyridin-3-ol]
GABA uptake system
  interaction with the GABA uptake system: did not interact
[9]
  interaction with GABA:2-oxo-glutarate aminotransferase: did not interact
[10]
  effect of bicuculline methochloride (BMC) on the inhibitory action on central neurones: reversibly antagonized
sleep
  deep sleep: promoting
  falling asleep: facilitates falling asleep
  total sleep time: increasing
[11]
  intensity of non-REM sleep: increase
  sleep consolidation: increase
[12]
  interaction with L-glutamate 1-carboxylase: did not interact

## CCC1(c2ccccc2)CCC(=O)NC1=O (centres unmarked) [glutethimide]
mice
  ED100: 300 mg/kg

## O=C(CCCN1CCC(O)(c2ccc(Cl)cc2)CC1)c1ccc(F)cc1 [haloperidol]
mice
  ED100: 10 mg/kg

## COc1ccc2[nH]cc(CCNC(C)=O)c2c1 [melatonin, N-[2-(5-Methoxy-1H-indol-3-yl)ethyl]acetamide]
[13]
  calcium-dependent release of dopamine: selectively inhibit
[14]
  calcium-dependent release of dopamine: selectively inhibit

## CCCC(C)(COC(N)=O)COC(N)=O [meprobamate]
mice
  ED100: 300 mg/kg

## CCCC(C)C1(CC)C(=O)NC(=O)NC1=O (centres unmarked) [pentobarbital]
mice
  ED100: 100 mg/kg

## COC(=O)[C@H]1[C@H]2C[C@@H]3c4[nH]c5cc(OC)ccc5c4CCN3C[C@H]2C[C@@H](OC(=O)c2cc(OC)c(OC)c(OC)c2)[C@@H]1OC [reserpine]
mice
  ED100: 50 mg/kg

## Cc1ccc(-c2nc3ccc(C)cn3c2CC(=O)N(C)C)cc1 [zolpidem, N,N,6-trimethyl-2-(4-methylphenyl)-imidazo[1,2-s]pyridine-3-acetamide]
[15]; between 5 and 10 mg in conventional forms
  kinetics in the therapeutical dose range: linear kinetics
[15]; following oral administration
  bioavailability: 70%
[15]; in vivo
  duration of action: up to 6 hours
  time at which peak plasma concentration is reached: 0.5 to 3 h
[15]; mean
  elimination half-life: 2.4 h

## zopiclone
[16]
  absorption: well absorbed
